{"source": "patent US20060217405A1", "about": "“Interstitial cystitis treatment” (Indevus Pharmaceuticals, Inc., priority 2005, published 2006)", "key": {"animals": {"tested_on": "animals", "settings": "animal studies; cited from earlier work"}, "[1]": {"tested_on": "interstitial cystitis patients", "settings": "bladder instillation; cited from earlier work"}, "bladder afferent nerves": {"tested_on": "bladder afferent nerves", "test": "Intravesical trospium and carbachol experiments", "type": "in vivo", "settings": "for direct effect on interstitial cystitis: trospium at low dose", "description": "The action of trospium is unique because it has selective activity on the bladder urothelium and bladder afferent nerves. The local trospium bladder effect is on the afferent nerve rather than bladder smooth muscle. The effect of intravesical administered trospium was not blocked by pre treatment of capsaicin or resiniferatoxin. This indicates the afferent nerve effect is that of A-delta and not C-fibers."}, "female SD rats": {"tested_on": "female SD rats", "test": "Cystometrogram (CMG) in anesthetized rats after intravesical instillation", "type": "in vivo, rat", "settings": "0.5 mcg/ml, approx. 5 ml intravesical, 10-30 minutes, urethane anesthesia", "procedure": "Baseline cystometrogram (CMG) is measured in a group of 6 female SD rats (250 grams). The rats are anesthetized utilizing urethane anesthesia at a rate of 1.2 g/kg. Trospium chloride at a concentration of 0.5 mcg/ml is administered by intravesical instillation. Approximately, 5 ml are instilled. The trospium solution is maintained in the rat bladder for a period of 10-30 minutes. At the end of that period the solution is expelled and the CMG measured."}, "human subject": {"tested_on": "human subject", "test": "Intravesical instillation of trospium chloride in human female subjects", "type": "in vivo", "settings": "0.5 mcg/ml twice daily intravesical", "procedure": "A human subject, and weighing approximately 70 kg, presents with a sense of urgency and frequency to urinate, although they are not incontinent. The subject experiences pain and other pelvic discomfort, however, while attempting to urinate. Trospium chloride at a concentration of 0.5 mcg/ml is administered twice daily by intravesical instillation to the subject for a total dose of 2.0 mg trospium chloride per day. The dosing regimen is continued for six (6) weeks.\nA human subject, and weighing approximately 60 kg, presents with incontinence. Trospium chloride at a concentration of 0.5 mcg/ml is administered twice daily by intravesical instillation to the subject for a total dose of 1.6 mg trospium chloride per day. The dosing regimen is continued for eight (8) months."}, "patients": {"tested_on": "patients", "test": "Intravesicular instillation of trospium chloride in patients", "type": "in vivo, human", "description": "Trospium chloride is a quaternary ammonium compound that concentrates in the urine primarily unchanged and is believed to have local antispasmodic activity. […] Therefore the use of trospium, especially by intravesicular instillation, is a novel treatment for interstitial cystitis with the very low potential for systemic side effects."}, "[2]": {"settings": "cited from earlier work"}, "[3]": {"tested_on": "interstitial cystitis patients", "settings": "cited from earlier work"}}, "data": [{"compound": "C[S+](C)[O-]", "note": "[DMSO, dimethyl sulfoxide]", "values": [{"measurement": "side effect of long-term treatment", "setting": "animals", "result": "cataracts"}, {"measurement": "average duration of significant pain relief", "setting": "[1]", "result": "about 10 months"}, {"measurement": "duration of garlic-like taste and odor on the breath and skin after treatment", "setting": "[1]", "result": "up to 72 hours"}, {"measurement": "patients experiencing significant pain relief", "setting": "[1]", "result": "About 50%"}]}, {"compound": "C[N+](C)(C)CCOC(N)=O", "note": "[carbachol]", "values": [{"measurement": "direct effect on interstitial cystitis", "setting": "bladder afferent nerves; intravesical", "result": "decreased"}]}, {"compound": "O=C(O[C@H]1C[C@H]2CC[C@@H](C1)[N+]21CCCC1)C(O)(c1ccccc1)c1ccccc1", "note": "[trospium chloride]", "values": [{"measurement": "acetic-acid induced bladder overactivity", "setting": "female SD rats", "result": "significantly suppressed"}, {"measurement": "bladder contractions during voiding", "setting": "female SD rats", "result": "without affecting"}, {"measurement": "urge, frequency and incontinence episodes", "setting": "human subject; 1.6 mg per day, eight months, incontinence", "result": "significant reduction"}, {"measurement": "pain when attempting to urinate", "setting": "human subject; 2.0 mg per day, six weeks, urgency, frequency, pain", "result": "no longer experiences pain"}, {"measurement": "absorption into the systemic circulation", "setting": "patients", "result": "little or no absorption"}, {"measurement": "effect of intravesical trospium after pre treatment of capsaicin or resiniferatoxin", "setting": "bladder afferent nerves; intravesical", "result": "not blocked"}, {"measurement": "direct effect on interstitial cystitis", "setting": "bladder afferent nerves; intravesical", "result": "no direct effect"}, {"measurement": "effect on the inhibitory effect of carbachol", "setting": "bladder afferent nerves; low dose of trospium", "result": "completely blocked"}, {"measurement": "metabolism", "setting": "[2]; in vivo", "result": "minimally metabolized"}, {"measurement": "protein binding", "setting": "[2]; in vivo", "result": "not highly protein-bound"}, {"measurement": "plasma half-life", "setting": "[2]; oral 20 mg tablets", "result": "about 20 hrs"}, {"measurement": "excreted through the feces", "setting": "[2]; oral", "result": 85.2, "unit": "%"}, {"measurement": "excreted through urine (tubular secretion)", "setting": "[2]; oral", "result": 5.8, "unit": "%"}, {"measurement": "recognized side effects", "setting": "[2]; oral", "result": "dry mouth, constipation, headache urinary retention and dry eyes"}]}, {"compound": "pentosan polysulfate sodium", "values": [{"measurement": "side effects", "setting": "[3]; oral Elmiron", "result": "primarily gastrointestinal discomfort, although some patients experienced hair loss"}, {"measurement": "patients treated whose symptoms improved", "setting": "[3]; oral, clinical trials, interstitial cystitis", "result": 38, "unit": "%"}]}]}
